Experimental data from ChEMBL document CHEMBL1914359, “Bendigoles D-F, bioactive sterols from the marine sponge-derived Actinomadura sp. SBMs009” (Bioorg Med Chem, 2011).
Activity calls are given as the source filed them. No cut-off for these calls is given here.

How the values were obtained:
Type in all cases: cell-based
[1] = target: T1, Glucocorticoid receptor (Homo sapiens) (UniProt P04150); assay: Inhibition of EGFP-tagged GR nuclear translocation in human HaCaT cells at 2.5 uM after 1 hr using Hoechst staining by fluorescence microscopy relative to control
T1 sequence (whole entry): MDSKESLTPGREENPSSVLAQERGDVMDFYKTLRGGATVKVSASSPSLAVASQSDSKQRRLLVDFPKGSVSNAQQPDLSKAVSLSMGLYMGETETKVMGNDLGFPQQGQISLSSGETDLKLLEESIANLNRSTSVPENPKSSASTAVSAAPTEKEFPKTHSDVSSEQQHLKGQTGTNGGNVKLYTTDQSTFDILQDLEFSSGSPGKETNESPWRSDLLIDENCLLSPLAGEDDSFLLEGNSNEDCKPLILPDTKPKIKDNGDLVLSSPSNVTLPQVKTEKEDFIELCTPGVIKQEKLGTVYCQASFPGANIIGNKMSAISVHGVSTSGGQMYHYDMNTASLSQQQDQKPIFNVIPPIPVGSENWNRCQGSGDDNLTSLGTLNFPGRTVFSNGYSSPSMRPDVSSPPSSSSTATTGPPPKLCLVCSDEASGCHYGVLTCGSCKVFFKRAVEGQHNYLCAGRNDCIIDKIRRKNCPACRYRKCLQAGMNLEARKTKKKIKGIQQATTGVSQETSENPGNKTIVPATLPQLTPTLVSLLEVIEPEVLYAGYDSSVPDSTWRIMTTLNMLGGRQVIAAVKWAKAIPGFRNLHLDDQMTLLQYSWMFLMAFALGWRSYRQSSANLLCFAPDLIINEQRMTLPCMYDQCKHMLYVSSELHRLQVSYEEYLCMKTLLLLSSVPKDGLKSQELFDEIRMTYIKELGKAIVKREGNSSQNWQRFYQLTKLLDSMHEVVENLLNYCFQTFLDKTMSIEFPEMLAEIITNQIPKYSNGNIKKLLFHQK

[2] = target: T1, Glucocorticoid receptor (Homo sapiens); assay: Inhibition of EGFP-tagged GR nuclear translocation in human U2OS cells at 2.5 uM after 1 hr using Hoechst staining by fluorescence microscopy relative to control
L929 = assay: Cytotoxicity against mouse L929 cells after 5 days by MTT assay; conditions: for Activity: mouse, l929, 120 h
[3] = target: T1, Glucocorticoid receptor (Homo sapiens); assay: Inhibition of EGFP-tagged GR nuclear translocation in human SH-SY5Y cells at 2.5 uM after 1 hr using Hoechst staining by fluorescence microscopy relative to control
[4] = target: T1, Glucocorticoid receptor (Homo sapiens); assay: Inhibition of EGFP-tagged GR nuclear translocation in human U2OS cells at 250 uM after 1 hr using Hoechst staining by fluorescence microscopy relative to control
[5] = target: T1, Glucocorticoid receptor (Homo sapiens); assay: Inhibition of EGFP-tagged GR nuclear translocation in human SH-SY5Y cells at 250 uM after 1 hr using Hoechst staining by fluorescence microscopy relative to control
[6] = target: T1, Glucocorticoid receptor (Homo sapiens); assay: Inhibition of EGFP-tagged GR nuclear translocation in human HaCaT cells at 250 uM after 1 hr using Hoechst staining by fluorescence microscopy relative to control
[7] = Inhibition of IL1-beta-induced GFP-tagged NFkappaB nuclear translocation in CHO cells pretreated for 4 hrs before IL1-beta challenge using Hoechst staining by fluorescence microscopy relative to control; conditions: Cricetulus griseus

| inhibition [1] | inhibition [2] | inhibition [3] | inhibition [4] | inhibition [5] | inhibition [6] | IC50 [7] | SMILES | IC50 (L929; Mus musculus, L929, 120 h) | Activity (L929) |
| --- | --- | --- | --- | --- | --- | --- | --- | --- | --- |
| Active | Active | Active | Active | Active | Active | – | C[C@H](C(=O)O)[C@H]1CC[C@H]2[C@@H]3[C@H](O)CC4=CC(=O)C=C[C@]4(C)[C@H]3C[C@H](O)[C@]12C (relative stereo) | 30 µM | – |
| Active | Active | Active | Active | Active | Active | – | CC(=O)[C@@H](C)[C@H]1CC[C@H]2[C@@H]3[C@H](O)CC4=CC(=O)C=C[C@]4(C)[C@H]3C[C@H](O)[C@]12C (relative stereo) | – | Non-toxic |
| Active | Active | Active | Active | Active | Active | 71 µM | C[C@H](CCC(=O)O)[C@H]1CC[C@H]2[C@@H]3[C@H](O)CC4=CC(=O)C=C[C@]4(C)[C@H]3C[C@H](O)[C@]12C (relative stereo) | – | Non-toxic |
